Measurements reported in patent US20260152484A1, “HETEROCYCLIC COMPOUNDS AS TRIGGERING RECEPTOR EXPRESSED ON MYELOID CELLS 2 AGONISTS” (Vigil Neuroscience, Inc., priority 2021, published 2026).

Target: T1, human TREM2 (Homo sapiens, UniProt Q9NZC2)
T1 construct: expressed in transfected cells; host or cells: HEK293T (HEK293T-hTREM2 cells)
Experiment: Cellular phosphorylation of Syk (AlphaLisa) in HEK293T-hTREM2 cells, TREM2 agonist potency
Format: cell-based
Settings: HEK293 cells expressing human TREM2 and DAP12; pSyk AlphaLisa; Table D
Description: In Vitro Measurement of Triggering Receptor Expressed on Myeloid Cells 2 Activity Using Cellular Phosphorylation of Spleen Tyrosine Kinase (“Syk”) Assays
Measurement of TREM2 agonist potency was done using a HEK cell line expressing human TREM2 and DAP12 (HEK293T-hTREM2 cells). Binding of small molecules to, and activation of, TREM2 increases the phosphorylation of Syk. The resultant levels of Syk phosphorylation are measured using a commercial AlphaLisa reagent kit. To perform the assay, HEK-hTREM2 cells were plated at 14,000 cells per well in a 384 well plate, in 25 μL of complete growth media and incubated at 37° C., 5% CO2 for 20-24 hours.
Prior to the assay, test compounds were diluted in the 384 well plates in assay buffer and allowed to equilibrate for 30 minutes. Growth media was removed from cell plates by inversion on blotting paper, and 25 μL of test articles in assay buffer was added to cells. Cells were incubated for 45 minutes at room temperature. After 45 minutes, assay buffer was removed and 10 μL of lysis buffer was added. Plates were shaken for 20 minutes at 350 RPM at room temperature. After complete lysis, AlphaLisa reagents were added to the lysate, and fluourescence intensity was measured using a Perkin Elmer Envision plate reader. Intensities were used to generate a standard curve, and % activation was calculated. Curve fitting was performed using Prism v9 software, log(agonist) vs response—variable slope (four parameters), and EC50s were calculated from the curve fit.
The results presented in Table D have been generated with the in vitro assay described above. This assay may be used to test any of the compounds described herein to assess and characterize a compound's ability to act as an agonist of TREM2.

T1 sequence (Q9NZC2 19-230): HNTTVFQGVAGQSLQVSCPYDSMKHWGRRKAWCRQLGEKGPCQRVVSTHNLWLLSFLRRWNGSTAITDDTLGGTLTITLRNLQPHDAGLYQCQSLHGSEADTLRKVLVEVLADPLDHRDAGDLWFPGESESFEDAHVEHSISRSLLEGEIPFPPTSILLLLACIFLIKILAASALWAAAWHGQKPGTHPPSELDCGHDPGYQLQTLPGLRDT
T1 sequence (O43914 22-113 partner): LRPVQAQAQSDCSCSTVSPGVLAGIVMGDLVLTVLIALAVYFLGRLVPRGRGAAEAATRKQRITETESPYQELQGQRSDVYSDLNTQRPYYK

EC50: 3 to 100 µM
SMILES: Cc1nc2c(=O)n(CCc3ccccc3)nc(-c3ccc(O)cc3)c2s1 [compound 39, 7-(4-hydroxyphenyl)-2-methyl-5-phenethylthiazolo[4,5-d]pyridazin-4(5H)-one]
